Test results taken from PMC7488288, “Understanding and Improving the Membrane Permeability of VH032-Based PROTACs” (ACS Medicinal Chemistry Letters, 2020).
Like-named read-outs stand apart in the source and are kept apart here.

Experiments:
HL60 [1] = test: Cell proliferation assay, HL60; assay type: cell-based; conditions: for pEC50 (HL60): 48 h treatment; for EC50: Homo sapiens, HL-60, 48 h treatment, read-out: pEC50 (HL60) (converted)
From the text: (§1) IX. Cell proliferation assay
(§2) Cell proliferation data were collected as described in Chan et al. 2018 pg. 511 titled “Cell

MV4;11 [2] = test: Cell proliferation assay, MV4;11; assay type: cell-based; conditions: Homo sapiens, 48 h treatment, read-out: pEC50 (MV4;11) (converted)
From the text: as §1, §2

[3] = for LPE: LPE = LogD(dec/w) – 1.06(ALogP) + 5.47
in vitro = conditions: PAMPA
HL60 [4] = system: HL60; set-up: method as in Chan et al. 2018 (ref1); conditions: cell proliferation, 48 h treatment; ref Chan et al. 2018 (ref1); cited from earlier work
MV4;11 [5] = conditions: cited from earlier work; for pEC50 (MV4;11): cell proliferation, 48 h treatment, ref Chan et al. 2018 (ref1)
VHL protein = system: VHL protein; set-up: method as in PMID 28288108, PMID 30721025; conditions: cited from earlier work
VHL E3 ubiquitin ligase = system: VHL E3 ubiquitin ligase; set-up: method as in PMID 29018234; conditions: cited from earlier work
VHL = target: T1, VHL (Homo sapiens, UniProt P40337); test: Fluorescence polarization (FP) competitive binding assay; conditions: 15 nM VCB protein, 10 nM FAM-labeled HIF-1α peptide JC9, read-out: Kd (FP-derived)
T1 construct: each well solution containing 15 nM VCB

With `CC(=O)N[C@H](C(=O)N1C[C@H](O)C[C@H]1C(=O)NCc1ccc(-c2scnc2C)cc1)C(C)(C)SCCOCCOCCNC(=O)C[C@@H]1N=C(c2ccc(Cl)cc2)c2c(sc(C)c2C)-n2c(C)nnc21` [Compound 16] the “pEC50 (HL60)” value (HL60 [1]) was “BLQ”, the EC50 (MV4;11 [2]) was 692 nM and the LPE [3] was −2.6. The Papp at 15 h (in vitro; pH 7.4) was 0.003 ×10⁻⁶ cm/s, the “permeability relative to 15 (PAMPA)” value was “reduced by half” and the “PAMPA permeability (Pe)” value (pH 7.4) was 0.003 ± 8.4x10-5.

For `Cc1ncsc1-c1ccc(CNC(=O)[C@@H]2C[C@@H](O)CN2C(=O)[C@@H](NC(=O)[C@H](Cc2ccccc2)NC(=O)COCCOCCOCCNC(=O)C[C@@H]2N=C(c3ccc(Cl)cc3)c3c(sc(C)c3C)-n3c(C)nnc32)C(C)(C)C)cc1` [Compound 9], the EC50 (HL60 [1]) was 4.17 µM, the EC50 (MV4;11 [2]) was 457 nM and the LPE [3] was -1.1. The “decrease in LPE vs 8” value ([3]; addition of a Phe residue to 8) was 1.2 unit, the Papp at 15 h (in vitro; pH 7.4) was 0.006 ×10⁻⁶ cm/s and the “fold decrease in permeability vs 8 (PAMPA)” value (pH 7.4) was 5 fold.

For `CC(=O)N1c2ccc(-c3ccc(C(=O)NCCOCCOCC(=O)N[C@H](C(=O)N4C[C@H](O)C[C@H]4C(=O)NCc4ccc(-c5scnc5C)cc4)C(C)(C)C)cc3)cc2[C@H](Nc2ccc(Cl)cc2)C[C@@H]1C` [Compound 10], the “pEC50 (HL60)” value (HL60 [4]) is listed as 6.17, the LPE [3] is listed as -0.1 and the Papp at 15 h (in vitro; pH 7.4) is listed as 0.3 ± 0.1 ×10⁻⁶ cm/s. The “fold difference in permeability vs 11 (PAMPA)” value (pH 7.4) was 2 fold and the “pEC50 (MV4;11)” value (MV4;11 [5]) was 6.24.

For `Cc1sc2c(c1C)C(c1ccc(Cl)cc1)=N[C@@H](CC(=O)OC(C)(C)C)c1nnc(C)n1-2` [Compound 1, reference compound], the Papp (in vitro; pH 7.4, PAMPA permeability (Pe)) was ≥ 5 ×10⁻⁶ cm/s.

In the case of `CC(=O)N[C@H](C(=O)N1C[C@H](O)C[C@H]1C(=O)NCc1ccc(-c2scnc2C)cc1)C(C)(C)SCCOCCNC(=O)C[C@@H]1N=C(c2ccc(Cl)cc2)c2c(sc(C)c2C)-n2c(C)nnc21` [Compound 15], the EC50 (HL60 [1]) is reported as 12.6 µM, the EC50 (MV4;11 [2]) is reported as 7240 nM and the LPE [3] is reported as −2.3. For the same molecule, the Papp at 15 h (in vitro; pH 7.4) was 0.005 ± 0.003 ×10⁻⁶ cm/s.

`Cc1ncsc1-c1ccc(CNC(=O)[C@@H]2C[C@@H](O)CN2C(=O)[C@@H](NC(=O)COCCOCCOCCOCC(=O)N[C@H](C(=O)N2C[C@H](O)C[C@H]2C(=O)NCc2ccc(-c3scnc3C)cc2)C(C)(C)C)C(C)(C)C)cc1` [Compound 12] gave an LPE ([3]; listed as CM9 (12)) of 0.8 and a Papp (in vitro; pH 7.4) of 0.009 ×10⁻⁶ cm/s.

For `Cc1ncsc1-c1ccc(CNC(=O)[C@@H]2C[C@@H](O)CN2C(=O)[C@@H](NC(=O)CCOCCOCCOCCNC(=O)Cc2ccccc2)C(C)(C)C)cc1` [Compound 6], the “ΔLPE (lower than 4)” value ([3]; comparator compound 4) was 0.4 and the Papp at 7 h (in vitro; pH 7.4) was 0.2 ± 0.03 ×10⁻⁶ cm/s.

Molecule `Cc1ncsc1-c1ccc(CNC(=O)[C@@H]2C[C@H](O)CN2C(=O)[C@@H](NC(=O)COCCOCCOCCOCCOCCOCC(=O)N[C@H](C(=O)N2C[C@@H](O)C[C@H]2C(=O)NCc2ccc(-c3scnc3C)cc2)C(C)(C)C)C(C)(C)C)cc1` [Compound 14] has an LPE ([3]; listed as CMP98 (14)) of 1.7 and a Papp at 15 h (in vitro; pH 7.4) of 0.002 ± 0.0002 ×10⁻⁶ cm/s.

For `CC(=O)N1c2ccc(-c3ccc(C(=O)NCCOCCOCCOCCOCC(=O)N[C@H](C(=O)N4C[C@H](O)C[C@H]4C(=O)NCc4ccc(-c5scnc5C)cc4)C(C)(C)C)cc3)cc2[C@H](Nc2ccc(Cl)cc2)C[C@@H]1C` [Compound 11], the “pEC50 (HL60)” value (HL60 [4]) is listed as 6.37, the LPE [3] is listed as 0.2 and the Papp at 15 h (in vitro; pH 7.4) is listed as 0.16 ± 0.14 ×10⁻⁶ cm/s. The “pEC50 (MV4;11)” value (MV4;11 [5]) was 7.08.

For `Cc1ncsc1-c1ccc(CNC(=O)[C@@H]2C[C@@H](O)CN2C(=O)[C@@H](NC(=O)Cc2ccccc2)C(C)(C)C)cc1` [Compound 4], the LPE [3] was 2.0, the Papp (in vitro; pH 7.4) was ≥ 5 ×10⁻⁶ cm/s and the Papp at 7 h (in vitro; pH 7.4) was 8.6 ×10⁻⁶ cm/s.

For `CC(=O)N[C@H](C(=O)N1C[C@H](O)C[C@H]1C(=O)NCc1ccc(-c2scnc2C)cc1)C(C)(C)SCCCCCCNC(=O)C[C@@H]1N=C(c2ccc(Cl)cc2)c2c(sc(C)c2C)-n2c(C)nnc21` [AT1], the “fold lower binding affinity for the VHL protein compared to 8” value (VHL protein) is given as 5 fold.

In the case of `Cc1ncsc1-c1ccc(CNC(=O)[C@@H]2C[C@@H](O)CN2C(=O)[C@@H](NC(=O)COCCOCCOCCOCCOCCOCC(=O)N[C@H](C(=O)N2C[C@H](O)C[C@H]2C(=O)NCc2ccc(-c3scnc3C)cc2)C(C)(C)C)C(C)(C)C)cc1` [Compound 13], the “activity relative to 12 (cellular protein degradation assay)” value (VHL E3 ubiquitin ligase) is listed as “two log units”, the LPE ([3]; listed as CM11 (13)) is listed as 0.6 and the Papp (in vitro; pH 7.4) is listed as 0.005 ×10⁻⁶ cm/s. The “permeability relative to 12 (PAMPA)” value was “reduced by half”.

With `Cc1ncsc1-c1ccc(CNC(=O)[C@@H]2C[C@@H](O)CN2C(=O)[C@@H](OC(=O)Cc2ccccc2)C(C)(C)C)cc1` [Compound 3] the Kd (VHL) was 800 nM.

In the case of `CC(=O)N[C@H](C(=O)N1C[C@H](O)C[C@H]1C(=O)NCc1ccc(-c2scnc2C)cc1)C(C)(C)SCCCCNC(=O)C[C@@H]1N=C(c2ccc(Cl)cc2)c2c(sc(C)c2C)-n2c(C)nnc21` [Compound 17], the “pEC50 (HL60)” value (HL60 [1]) is reported as “BLQ”, the EC50 (MV4;11 [2]) is reported as 617 nM and the LPE [3] is reported as -3.1. For the same molecule, the “LPE lower than 15 (ΔLPE)” value ([3]; alkyl-linked 17 vs PEG counterpart 15) was 0.8, the Papp at 15 h (in vitro; pH 7.4) was 0.002 ×10⁻⁶ cm/s and the “fold less permeable than 15 (PAMPA)” value (pH 7.4) was 2.5 fold.

With `Cc1ncsc1-c1ccc(CNC(=O)[C@@H]2C[C@@H](O)CN2C(=O)[C@@H](OC(=O)CCOCCOCCOCCNC(=O)Cc2ccccc2)C(C)(C)C)cc1` [Compound 5] the “ΔLPE (lower than 3)” value ([3]; comparator compound 3) was 0.8, the Papp at 7 h (in vitro; pH 7.4) was 0.3 ± 0.1 ×10⁻⁶ cm/s and the “fold more permeable than 6 (PAMPA)” value (pH 7.4) was 1.5 fold.

In the case of `Cc1ncsc1-c1ccc(CNC(=O)[C@@H]2C[C@@H](O)CN2C(=O)[C@@H](NC(=O)COCCOCCNC(=O)C[C@@H]2N=C(c3ccc(Cl)cc3)c3c(sc(C)c3C)-n3c(C)nnc32)C(C)(C)C)cc1` [Compound 7], the “pEC50 (HL60)” value (HL60 [4]) is given as 5.84, the LPE [3] is given as 0.4 and the Papp (in vitro; pH 7.4) is given as > 0.6 ×10⁻⁶ cm/s. The Papp at 15 h (in vitro; pH 7.4) was 0.6 ×10⁻⁶ cm/s, the “fold more permeable than 8 (PAMPA)” value (pH 7.4) was 20 fold and the “fold more permeable than 9 (PAMPA)” value (pH 7.4) was 100 fold. The “fold more permeable than 15 (PAMPA)” value (pH 7.4) was 120 fold, the “fold more permeable than 17 and 14 (PAMPA)” value (pH 7.4) was 300 fold and the “pEC50 (MV4;11)” value (MV4;11 [5]) was 6.75.

In the case of `Cc1ncsc1-c1ccc(CNC(=O)[C@@H]2C[C@@H](O)CN2C(=O)[C@@H](NC(=O)COCCOCCOCCNC(=O)C[C@@H]2N=C(c3ccc(Cl)cc3)c3c(sc(C)c3C)-n3c(C)nnc32)C(C)(C)C)cc1` [Compound 8], the “pEC50 (HL60)” value (HL60 [4]) is given as 6.8, the Papp (in vitro; pH 7.4) is given as > 0.6 ×10⁻⁶ cm/s and the Papp at 15 h (in vitro; pH 7.4) is given as 0.03 ± 0.01 ×10⁻⁶ cm/s. For the same molecule, the “fold difference in permeability vs 16 (PAMPA)” value (pH 7.4) was 10 fold, the “fold less permeable than 7 (PAMPA)” value (pH 7.4) was 20 fold and the “activity relative to 7 (cellular antiproliferation)” value (MV4;11 [5]; SI Table 2, MV4;11 and HL60) was “one log unit”. For the same molecule, the “pEC50 (MV4;11)” value (MV4;11 [5]) was 7.57.
